Results on 4 compounds are retold here after US20110190267A1, “PRODRUGS OF OPIOIDS AND USES THEREOF” (priority 2010, published 2011).

Each structure is given as a SMILES string. Several values for one entry are separate records, joined by “and”; a condition that tells them apart may be missing. Equal entries are not always repeated. Marks after values point to notes of the source that are not given here.

A short description of data set [1]: Pharmacokinetics of nalbuphine or nalbuphine PABA carbamate, rats (Example 42). It counts as in vivo, Wistar rats. The settings on record: for half-life: read-out: t½ (converted).
Protocol: Test substances (nalbuphine at 3 mg nalbuphine free base equivalents/kg or nalbuphine para amino benzoic acid carbamate at 3 mg nalbuphine free base equivalents/kg) were administered by oral gavage to groups of male Wistar rats in a parallel group study design.
Blood samples were taken at various times after administration and submitted to analysis for the parent drug and pro-drug using a validated LC-MS-MS assay. Pharmacokinetic parameters derived from the plasma analytical data were determined using Win Nonlin.
Data set [2] can be described thus: Pharmacokinetics of dextrorphan or dextrorphan PABA carbamate, monkeys (Example 47). As to conditions: for half-life: read-out: t½ (converted). It counts as in vivo, cynomolgus monkeys.
Protocol: (§1) Blood samples were taken at various times after administration, and submitted to analysis for the parent drug and prodrug using a validated LC-MS-MS assay. Pharmacokinetic parameters derived from the plasma analytical data were determined using Win Nonlin.
Data set [3] is described as follows: Pharmacokinetics of dextrorphan or dextrorphan PABA carbamate, dogs (Example 48). In kind it is in vivo, beagle dogs. On the procedure: Data were normalized to 1 mg/kg
Data set [4] in a line: Pharmacokinetics of levorphanol or levorphanol PABA carbamate, monkeys (Example 45). It counts as in vivo. As to conditions: levorphanol in plasma after oral levorphanol, 5 mg free base equivalent/kg; for half-life: read-out: t½ (converted).
Protocol: as §1
Data set [5] can be described thus: Pharmacokinetics of levorphanol or levorphanol PABA carbamate, dogs (Example 46). In kind it is in vivo, Beagle dogs. As to conditions: for AUC / Cmax / Tmax / half-life / T>50%Cmax: levorphanol in plasma after oral levorphanol, 5 mg free base equivalents/kg, female beagle dog; for AUC: AUClast; for half-life / T>50%Cmax: maximum of 30% extrapolation allowed; for half-life: read-out: t½ (converted).
Protocol: as §1

Where [6] appears, read: nalbuphine in plasma after oral nalbuphine, 3 mg free base equivalents/kg, male rats, single animal.
Setting [7] is: nalbuphine PABA carbamate in plasma after oral p-aminobenzoic acid carbamate prodrug, 3 mg nalbuphine equivs/kg, male rats, single animal.
[8] abbreviates: dextrorphan in plasma after oral dextrorphan, 5 mg free base equivalents/kg, male cynomolgus monkeys, single animal.
Where [9] appears, read: dextrorphan in plasma after oral dextrorphan, 5 mg free base equivalents/kg, female dogs, single animal.
[10] abbreviates: male cynomolgus monkeys, single animal.
[11] abbreviates: male, cynomolgus monkey, plasma, po, 5 mg levorphanol free base equivalents/kg, Mean.
The mark [12] stands for this setting: male, cynomolgus monkey, plasma, po, 5 mg levorphanol free base equivalents/kg, single animal.

In general, AUC refers to the area under the concentration-time curve, a measure of exposure. As a reminder, the Cmax is the maximum level reached in the sampled fluid or tissue. For orientation: Tmax means the time from dosing to the highest level. In general, t½ refers to the time in which the quantity being followed falls by half. As to `Oc1ccc2c3c1O[C@H]1[C@@H](O)CC[C@@]4(O)[C@@H](C2)N(CC2CCC2)CC[C@]314` [nalbuphine], the AUC in data set [1] (male, Wistar, rat, plasma, po, 3 mg nalbuphine free base equivalents/kg, nalbuphine in plasma after oral nalbuphine, 3 mg free base equivalents/kg, Mean, read-out: AUC) was 1.2 ng·h/mL; in data set [1] (setting [6]), 1.8 ng·h/mL and 0.4 ng·h/mL and 1.3 ng·h/mL. Also, the Cmax in data set [1] (male, Wistar, rat, plasma, po, 3 mg nalbuphine free base equivalents/kg, nalbuphine in plasma after oral nalbuphine, 3 mg free base equivalents/kg, Mean, read-out: Cmax) was 1 ng/mL; in data set [1] (male, Wistar, rat, plasma, po, 3 mg nalbuphine free base equivalents/kg, nalbuphine in plasma after oral nalbuphine, 3 mg free base equivalents/kg, single animal, read-out: Cmax) it was 1.4 ng/mL; in data set [1] (setting [6]), 0.7 ng/mL and 0.8 ng/mL. For the same compound, the Tmax worked out at 0.8 h in data set [1] (male, Wistar, rat, plasma, po, 3 mg nalbuphine free base equivalents/kg, nalbuphine in plasma after oral nalbuphine, 3 mg free base equivalents/kg, Mean, read-out: Tmax); 0.5 h in data set [1] (male, Wistar, rat, plasma, po, 3 mg nalbuphine free base equivalents/kg, nalbuphine in plasma after oral nalbuphine, 3 mg free base equivalents/kg, single animal, read-out: Tmax); 1.0 h in data set [1] (setting [6]). Moreover, the half-life in data set [1] (male, Wistar, rat, plasma, po, 3 mg nalbuphine free base equivalents/kg, nalbuphine in plasma after oral nalbuphine, 3 mg free base equivalents/kg, Mean) is 1.4 h; in data set [1] (male, Wistar, rat, plasma, po, 3 mg nalbuphine free base equivalents/kg, nalbuphine in plasma after oral nalbuphine, 3 mg free base equivalents/kg, single animal) it was 1.2 h. Besides, the “T>50%Cmax” value in data set [1] (nalbuphine in plasma after oral nalbuphine, 3 mg free base equivalents/kg, male rats, Mean) was 1.3 h; in data set [1] (setting [6]), 1.5 h and 0.7 h and 1.8 h. In data set [1] (setting [6]), the t½ is reported as 1.6 h.
Consider `O=C(Nc1ccc(C(=O)O)cc1)Oc1ccc2c3c1O[C@H]1[C@@H](O)CC[C@@]4(O)[C@@H](C2)N(CC2CCC2)CC[C@]314` [nalbuphine PABA carbamate, nalbuphine para amino benzoic acid carbamate], for which the AUC in data set [1] (male, Wistar, rat, plasma, po, 3 mg nalbuphine free base equivalents/kg, nalbuphine PABA carbamate in plasma after oral p-aminobenzoic acid carbamate prodrug, 3 mg nalbuphine equivs/kg, Mean, read-out: AUC) was 11 ng·h/mL; in data set [1] (male, Wistar, rat, plasma, po, 3 mg nalbuphine free base equivalents/kg, nalbuphine PABA carbamate in plasma after oral p-aminobenzoic acid carbamate prodrug, 3 mg nalbuphine equivs/kg, single animal, read-out: AUC) it was 14 ng·h/mL; in data set [1] (setting [7]) it was 9.4 ng·h/mL and 11 ng·h/mL. Besides, the Cmax was 12 ng/mL in data set [1] (male, Wistar, rat, plasma, po, 3 mg nalbuphine free base equivalents/kg, nalbuphine PABA carbamate in plasma after oral p-aminobenzoic acid carbamate prodrug, 3 mg nalbuphine equivs/kg, Mean, read-out: Cmax); 16 ng/mL in data set [1] (male, Wistar, rat, plasma, po, 3 mg nalbuphine free base equivalents/kg, nalbuphine PABA carbamate in plasma after oral p-aminobenzoic acid carbamate prodrug, 3 mg nalbuphine equivs/kg, single animal, read-out: Cmax); 11 ng/mL and 9.2 ng/mL in data set [1] (setting [7]). Further, the Tmax worked out at 0.25 h in data set [1] (male, Wistar, rat, plasma, po, 3 mg nalbuphine free base equivalents/kg, nalbuphine PABA carbamate in plasma after oral p-aminobenzoic acid carbamate prodrug, 3 mg nalbuphine equivs/kg, Mean, read-out: Tmax) and 0.25 h in data set [1] (male, Wistar, rat, plasma, po, 3 mg nalbuphine free base equivalents/kg, nalbuphine PABA carbamate in plasma after oral p-aminobenzoic acid carbamate prodrug, 3 mg nalbuphine equivs/kg, single animal, read-out: Tmax). Also, the half-life in data set [1] (male, Wistar, rat, plasma, po, 3 mg nalbuphine free base equivalents/kg, nalbuphine PABA carbamate in plasma after oral p-aminobenzoic acid carbamate prodrug, 3 mg nalbuphine equivs/kg, Mean) is 0.8 h. In addition, the t½ in data set [1] (setting [7]) is 0.5 h and 0.8 h and 1.2 h.
In the case of `CN1CC[C@@]23CCCC[C@@H]2[C@@H]1Cc1ccc(O)cc13` [dextrorphan], the “T>50%Cmax” value in data set [2] (dextrorphan in plasma after oral dextrorphan, 5 mg free base equivalents/kg, male cynomolgus monkeys, Mean) is 3.5 h; in data set [2] (setting [8]) it was 3.7 h and 3.5 h and 4.5 h and 2.5 h and 3.3 h; in data set [3] (dextrorphan in plasma after oral dextrorphan, 5 mg free base equivalents/kg, female dogs, Mean) it was 2.4 h; in data set [3] (setting [9]), 2.9 h (2×) and 2.4 h and 2.2 h and 1.6 h. For the same compound, the Cmax in data set [2] (setting [8]) is 3.0 ng/mL and 3.5 ng/mL and 5.5 ng/mL; in data set [2] (male, cynomolgus monkey, plasma, po, 5 mg dextrorphan free base equivalents/kg, dextrorphan in plasma after oral dextrorphan, 5 mg free base equivalents/kg, male cynomolgus monkeys, Mean, read-out: Cmax), 3.9 ng/mL; in data set [2] (male, cynomolgus monkey, plasma, po, 5 mg dextrorphan free base equivalents/kg, dextrorphan in plasma after oral dextrorphan, 5 mg free base equivalents/kg, male cynomolgus monkeys, single animal, read-out: Cmax) it was 4.3 ng/mL; in data set [3] (setting [9]), 4.2 ng/mL and 2.1 ng/mL and 3.8 ng/mL and 2.7 ng/mL; in data set [3] (female, beagle, dog, plasma, po, 5 mg dextrorphan free base equivalents/kg, dextrorphan in plasma after oral dextrorphan, 5 mg free base equivalents/kg, female dogs, Mean, read-out: Cmax), 3.3 ng/mL; in data set [3] (female, beagle, dog, plasma, po, 5 mg dextrorphan free base equivalents/kg, dextrorphan in plasma after oral dextrorphan, 5 mg free base equivalents/kg, female dogs, single animal, read-out: Cmax) it was 3.6 ng/mL. For the same compound, the time to peak (Tmax) in data set [2] (setting [8]) turned out to be 1.0 h; in data set [2] (male, cynomolgus monkey, plasma, po, 5 mg dextrorphan free base equivalents/kg, dextrorphan in plasma after oral dextrorphan, 5 mg free base equivalents/kg, male cynomolgus monkeys, Mean, read-out: Tmax), 1.6 h; in data set [2] (male, cynomolgus monkey, plasma, po, 5 mg dextrorphan free base equivalents/kg, dextrorphan in plasma after oral dextrorphan, 5 mg free base equivalents/kg, male cynomolgus monkeys, single animal, read-out: Tmax), 2 h; in data set [3] (setting [9]), 1.0 h; in data set [3] (female, beagle, dog, plasma, po, 5 mg dextrorphan free base equivalents/kg, dextrorphan in plasma after oral dextrorphan, 5 mg free base equivalents/kg, female dogs, Mean, read-out: Tmax) it was 0.6 h; in data set [3] (female, beagle, dog, plasma, po, 5 mg dextrorphan free base equivalents/kg, dextrorphan in plasma after oral dextrorphan, 5 mg free base equivalents/kg, female dogs, single animal, read-out: Tmax), 0.5 h. For the same compound, the AUC in data set [2] (dextrorphan in plasma after oral dextrorphan, 5 mg free base equivalents/kg, male cynomolgus monkeys, single animal (animal 12: extrapolation of AUC data 39%)) was 14* ng · h/mL and 19 ng · h/mL (2×) and 13 ng · h/mL; in data set [2] (male, cynomolgus monkey, plasma, po, 5 mg dextrorphan free base equivalents/kg, dextrorphan in plasma after oral dextrorphan, 5 mg free base equivalents/kg, male cynomolgus monkeys, Mean, read-out: AUC), 17 ng·h/mL; in data set [2] (male, cynomolgus monkey, plasma, po, 5 mg dextrorphan free base equivalents/kg, read-out: AUC) it was 20 ng·h/mL; in data set [3] (setting [9]), 18.9 ng·h/mL and 13.4 ng·h/mL and 8.3 ng·h/mL and 10.7 ng·h/mL and 12.4 ng·h/mL; in data set [3] (female, beagle, dog, plasma, po, 5 mg dextrorphan free base equivalents/kg, dextrorphan in plasma after oral dextrorphan, 5 mg free base equivalents/kg, female dogs, Mean, read-out: AUC) it was 12.7 ng·h/mL. The half-life in data set [2] (male, cynomolgus monkey, plasma, po, 5 mg dextrorphan free base equivalents/kg, dextrorphan in plasma after oral dextrorphan, 5 mg free base equivalents/kg, male cynomolgus monkeys, Mean) was 2.1 h; in data set [2] (male, cynomolgus monkey, plasma, po, 5 mg dextrorphan free base equivalents/kg, dextrorphan in plasma after oral dextrorphan, 5 mg free base equivalents/kg, male cynomolgus monkeys, single animal) it was 2.3 h; in data set [3] (female, beagle, dog, plasma, po, 5 mg free base equivalents/kg, dextrorphan in plasma after oral dextrorphan, 5 mg free base equivalents/kg, female dogs, Mean, read-out: t½ (converted)) it was 3.1 h. In addition, the “T>50% Cmax of dextrorphan” value in data set [3] (dogs, oral) is on record as 2.4 h.
Take `CN1CC[C@]23CCCC[C@H]2[C@H]1Cc1ccc(O)cc13` [levorphanol]: the AUC in data set [4] (setting [10]) is 28 ng·h/mL and 34 ng·h/mL and 27 ng·h/mL; in data set [4] (male, cynomolgus monkey, plasma, po, 5 mg levorphanol free base equivalents/kg, Mean, read-out: AUC), 28 ng·h/mL; in data set [4] (male, cynomolgus monkey, plasma, po, 5 mg levorphanol free base equivalents/kg, single animal, read-out: AUC) it was 22 ng·h/mL; in data set [5] (female, beagle, dog, plasma, po, 5 mg levorphanol free base equivalents/kg, Mean, read-out: AUC), 10 ng·h/mL; in data set [5] (single animal), 5.8 ng·h/mL and 19 ng·h/mL and 16 ng·h/mL and 6.6 ng·h/mL and 2.8 ng·h/mL. For the same compound, the Cmax was 6.6 ng/mL and 8.2 ng/mL and 7.6 ng/mL in data set [4] (setting [10]); 7.1 ng/mL in data set [4] (male, cynomolgus monkey, plasma, po, 5 mg levorphanol free base equivalents/kg, Mean, read-out: Cmax); 6.2 ng/mL in data set [4] (male, cynomolgus monkey, plasma, po, 5 mg levorphanol free base equivalents/kg, single animal, read-out: Cmax); 3.8 ng/mL in data set [5] (female, beagle, dog, plasma, po, 5 mg levorphanol free base equivalents/kg, Mean, read-out: Cmax); 4.2 ng/mL and 3.2 ng/mL and 5.3 ng/mL and 4.3 ng/mL and 1.9 ng/mL in data set [5] (single animal). The t½ in data set [4] (setting [10]) was 2.1 h and 1.6 h. For the same compound, the Tmax in data set [4] (setting [11]) was 1.5 h; in data set [4] (setting [12]), 2 h; in data set [5] (female, beagle, dog, plasma, po, 5 mg levorphanol free base equivalents/kg, Mean, read-out: Tmax), 0.6 h; in data set [5] (female, beagle, dog, plasma, po, 5 mg levorphanol free base equivalents/kg, single animal, read-out: Tmax), 1 h; in data set [5] (single animal), 0.5 h. For the same compound, the half-life in data set [4] (setting [11]) was 1.7 h; in data set [4] (setting [12]) it was 1.5 h; in data set [5] (female, beagle, dog, plasma, po, 5 mg levorphanol free base equivalents/kg, Mean) it was 1.2 h; in data set [5] (female, beagle, dog, plasma, po, 5 mg levorphanol free base equivalents/kg, single animal), 0.8 h. Moreover, the “T>50%Cmax of levorphanol” value in data set [5] (dogs, oral 5 mg levorphanol free base equivalents/kg) turned out to be 1.4 h. The “T>50%Cmax” value in data set [5] (Mean) was 1.4 h; in data set [5] (single animal), 1.5 h and 1.3 h.
